The values that follow come from patent US6525059B1, “Substituted pyrazoles as p38 kinase inhibitors” (G. D. Searle & Company, priority 1998, dated 2003).

For orientation: IC50 means the concentration at which inhibition is half-maximal. What is called melting point is the temperature, or range, at which the solid turns liquid.

One data set concerns TNF alpha. In words: Mouse model of LPS-induced TNF alpha production. In kind it is in vivo. The following applies: mouse, oral, 1h before LPS, 30 mpk; read-out: mLPS 1h, 30 mpk percent inhibition. As for the experimental part:
TNF alpha was induced in 10-12 week old BALB/c female mice by tail vein injection with 100 ng lipopolysaccharide (from S. Typhosa) in 0.2 ml saline. One hour later mice were bled from the retroorbital sinus and TNF concentrations in serum from clotted blood were quantified by ELISA.
Efficacy was determined at each time point as percent inhibition of serum TNF levels relative to LPS injected mice that received vehicle only
wherein in the dose is milligram per kilogram (mpk) administered by oral gavage and the predose time indicates the number of hours before LPS challenge when the compound is administered.

The subject of the next data set is TNF-α. Kind of data set: LPS stimulation of TNF production by U937 cells. The class given is cell-based, human. The conditions noted are these: Homo sapiens, U-937, LPS-stimulated U937 cells; read-out: U937 IC50. An outline of the steps:
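PMA-differentiated human U937 cells (20 ng/ml PMA, 24 h, then 24-48 h rest) at 2 million cells/ml, 0.1% DMSO final, stimulated with E. coli LPS (100 ng/ml final) for 4 h at 37° C. TNF-α in medium measured by ELISA; IC50 in μM.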

Data set [1] deals with T1, human GST-p38 kinase alpha (Homo sapiens, UniProt Q16539).
T1 construct: The coding region of the human p38a cDNA was obtained by PCR-amplification from RNA isolated from the human monocyte cell line THP.1; made in house; host or cells: E. coli DH10B
In words: p38 kinase in vitro assay, second format, phosphorylation of EGFRP with 33P-ATP. In kind it is biochemical. The conditions noted are these: EGFRP assay procedure. An outline of the steps: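 Activated human GST-p38α (pre-activated with GST-MKK6, 1 h, 30 °C) phosphorylates EGFR 21-mer peptide (200 μM) with 50 μM ATP plus γ-33P-ATP, pH 7.5, 60 min at room temperature. Unreacted ATP removed by AG 1×8 resin; supernatant scintillation-counted.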

The next data set concerns the target T2, human p38 kinase alpha (Homo sapiens, UniProt Q16539).
T2 construct: The coding region of the human p38a cDNA was obtained by PCR-amplification from RNA isolated from the human monocyte cell line THP.1; GST (N); made in house; host or cells: E. coli DH10B
Kind of data set: p38 kinase in vitro assay, phosphorylation of biotinylated PHAS-I with gamma 32P-ATP. The following applies: p38α in vitro, PHAS-I assay procedure; read-out: p38^1 IC50. The class given is biochemical. An outline of the steps: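 Radiometric filter-capture read-out: streptavidin plates trap biotin-PHAS-I labelled by activated (MKK6) human p38α from γ-32P-ATP. Buffer 25 mM HEPES pH 7.5, 10 mM magnesium acetate, 50 μM cold ATP; reactions 1 h or overnight at 30 °C; inhibitors 10-fold dilutions 100 to 0.001 μM, triplicates, 1% DMSO.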

Setting [2] is: p38α in vitro, read-out: p38^2 IC50.

SMILES strings stand for the structures. Where two headings read alike, the source gives them in different places.

T1 sequence (Q16539 whole entry): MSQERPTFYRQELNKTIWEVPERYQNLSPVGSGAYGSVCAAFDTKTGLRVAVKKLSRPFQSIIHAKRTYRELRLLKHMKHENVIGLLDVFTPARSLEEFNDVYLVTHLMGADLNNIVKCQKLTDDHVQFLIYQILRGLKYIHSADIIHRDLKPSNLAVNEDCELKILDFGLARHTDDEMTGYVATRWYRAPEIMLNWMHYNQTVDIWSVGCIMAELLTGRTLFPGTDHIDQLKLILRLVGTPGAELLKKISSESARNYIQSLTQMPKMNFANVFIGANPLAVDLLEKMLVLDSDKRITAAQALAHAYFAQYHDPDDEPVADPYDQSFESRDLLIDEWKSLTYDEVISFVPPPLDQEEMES
T2 sequence (Q16539 whole entry): as above

`CN(C)CCn1cc(-c2ccncc2)c(-c2ccc(F)cc2)n1` [Example A-261, 3-(4-fluorophenyl)-N,N-dimethyl-4-(4-pyridinyl)-1H-pyrazole-1-ethanamine]: in the data set with TNF alpha, the inhibition in vivo at 30 mg/kg came to 92%. For the same compound, the IC50 in the data set on TNF-α came out at 254 nM; in data set [1] (setting [2]), 8 nM.

Take `Cn1cc(-c2ccnc(CCc3ccc(F)cc3)c2)c(-c2ccc(F)cc2)n1` [Example A-262, 2-[2-(4-fluorophenyl)ethyl]-4-[3-(4-fluorophenyl)-1-methyl-1H-pyrazol-4-yl]pyridine]: in the data set on TNF alpha, the inhibition in vivo at 30 mg/kg is 45%. Further, the IC50 in the data set on TNF-α was 327 nM; in data set [1] (setting [2]), less than 100 nM.

Turning to `Cn1cc(-c2ccncc2)c(-c2ccc(F)cc2)n1` [Example A-212, 4-[3-(4-fluorophenyl)-1-methyl-1H-pyrazol-4-yl]pyridine], the figures for the IC50 (at human p38 kinase alpha; in the data set with TNF-α; in data set [1] (setting [2])) were 490 nM, 96.7 nM and 740 nM, respectively. The inhibition in vivo at 30 mg/kg with TNF alpha was found to be 93%.

On to `Clc1ccc(-c2n[nH]cc2-c2ccncc2)cc1` [Example A-230, 4-[3-(4-chlorophenyl)-1H-pyrazol-4-yl]pyridine], for which the results for the IC50 (at human p38 kinase alpha; in data set [1] (setting [2])) were 420 nM and 178 nM, respectively. The inhibition in vivo at 30 mg/kg in the data set with TNF alpha turned out to be 96%.

`CC[C@H](C)CNc1cc(-c2c[nH]nc2-c2ccc(Cl)cc2)ccn1` [Example A-245, (S)-4-[3-(4-chlorophenyl)-1H-pyrazol-4-yl]-N-(2-methylbutyl)-2-pyridinamine]: the inhibition in vivo at 30 mg/kg in the data set with TNF alpha was determined as 65%. For the same compound, the IC50 is 33.7 nM with TNF-α and less than 1 nM in data set [1] (setting [2]).

Turning to `CN(C)CCn1cc(-c2ccnc(F)c2)c(-c2ccc(F)cc2)n1` [Example A-271, 3-(4-fluorophenyl)-4-(2-fluoro-4-pyridinyl)-N,N-dimethyl-1H-pyrazole-1-ethanamine], the inhibition in vivo at 30 mg/kg in the data set on TNF alpha came out at 68%. The IC50 was determined as 4210 nM with TNF-α and 216 nM in data set [1] (setting [2]).

As for `Cn1nc(-c2ccc(F)cc2)c(-c2ccncc2)c1Br` [Example A-214, 4-[5-bromo-3-(4-fluorophenyl)-1-methyl-1H-pyrazol-4-yl]pyridine], the melting point was determined as 174.38 °C. In the data set on TNF alpha, the inhibition in vivo at 30 mg/kg was 70%. Besides, in data set [1] (setting [2]), the IC50 was 60 nM.

As for `Cn1cc(-c2ccncc2)c(-c2ccc(C(F)(F)F)cc2)n1` [Example A-252, 4-[1-methyl-3-[4-(trifluoromethyl)phenyl]-1H-pyrazol-4-yl]pyridine], the inhibition in vivo at 30 mg/kg in the data set with TNF alpha was 75%. Besides, the results for the IC50 (in the data set on TNF-α; in data set [1] (setting [2])) were 1200 nM and 774 nM, respectively.

Regarding `OCCn1cc(-c2ccnc(F)c2)c(-c2ccc(F)cc2)n1` [Example A-267, 3-(4-fluorophenyl)-4-(2-fluoro-4-pyridinyl)-1H-pyrazole-1-ethanol], the inhibition in vivo at 30 mg/kg in the data set with TNF alpha was 80%. The IC50 in the data set with TNF-α is 2670 nM; in data set [1] (setting [2]), 430 nM.

Regarding `c1cc(-c2c[nH]nc2-c2ccc3c(c2)OCO3)ccn1` [Example A-228, 4-[3-(1,3-benzodioxol-5-yl)-1H-pyrazol-4-yl]pyridine], the half-maximal inhibitory concentration (IC50) at human p38 kinase alpha was determined as 760 nM; in the data set with TNF-α, 417 nM; in data set [1] (setting [2]) it was 339 nM. Besides, in the data set on TNF alpha, the inhibition in vivo at 30 mg/kg is 92%.

For `Cc1cnccc1-c1c[nH]nc1-c1ccc(F)cc1` [Example A-258, 4-[3-(4-fluorophenyl)-1H-pyrazol-4-yl]-3-methylpyridine], the inhibition in vivo at 30 mg/kg with TNF alpha came out at 68%. Further, the IC50 in the data set on TNF-α worked out at 1210 nM; in data set [1] (setting [2]) it was 480 nM.

`Cn1cc(-c2ccnc(F)c2)c(-c2ccc(F)c(F)c2)n1` [Example A-260, 4-[3-(3,4-difluorophenyl)-1-methyl-1H-pyrazol-4-yl]-2-fluoropyridine]: in the data set with TNF alpha, the inhibition in vivo at 30 mg/kg worked out at 79%. In addition, the IC50 in the data set with TNF-α came out at 1280 nM; in data set [1] (setting [2]) it was 230 nM.

Turning to `CC(Nc1cc(-c2c[nH]nc2-c2ccc(F)cc2)ccn1)c1ccc(F)cc1` (centres unmarked) [Example A-253, N-[1-(4-fluorophenyl)ethyl]-4-[3-(4-fluorophenyl)-1H-pyrazol-4-yl]-2-pyridinamine], the inhibition in vivo at 30 mg/kg in the data set with TNF alpha amounted to 61%. The values for the IC50 (with TNF-α; in data set [1] (setting [2])) were 4.4 nM and less than 1 nM, respectively.

In the case of `Fc1cc(-c2c[nH]nc2-c2ccc(Cl)cc2)ccn1` [Example A-240, 4-[3-(4-chlorophenyl)-1H-pyrazol-4-yl]-2-fluoropyridine], the inhibition in vivo at 30 mg/kg in the data set on TNF alpha amounted to 85%. Also, the IC50 in data set [1] (setting [2]) worked out at 961 nM.

Consider `Cn1cc(-c2ccncc2)c(-c2ccc(I)cc2)n1` [Example A-251, 4-[3-(4-iodophenyl)-1-methyl-1H-pyrazol-4-yl]pyridine], for which, in the data set on TNF alpha, the inhibition in vivo at 30 mg/kg came to 87%. Also, the IC50 in data set [1] (setting [2]) was 637 nM.

Consider `Cc1cnccc1-c1cn(C)nc1-c1ccc(F)cc1` [Example A-259, 4-[3-(4-fluorophenyl)-1-methyl-1H-pyrazol-4-yl]-3-methylpyridine], for which the inhibition in vivo at 30 mg/kg in the data set on TNF alpha is 62%. The IC50 was 757 nM in the data set with TNF-α and 170 nM in data set [1] (setting [2]).

For `Fc1ccc(-c2n[nH]cc2-c2ccnc(NCCn3ccnc3)c2)cc1` [Example A-268, 4-[3-(4-fluorophenyl)-1H-pyrazol-4-yl]-N-[2-(1H-imidazol-1-yl)ethyl]-2-pyridinamine], the inhibition in vivo at 30 mg/kg in the data set on TNF alpha amounted to 11%. For the same compound, the IC50 is 7.4 nM in the data set on TNF-α and less than 100 nM in data set [1] (setting [2]).

For `Cn1cc(-c2ccncc2)c(-c2ccc3c(c2)OCO3)n1` [Example A-231, 4-[3-(1,3-benzodioxol-5-y)-1-methyl-1H-pyrazol-4-yl]pyridine], the inhibition in vivo at 30 mg/kg with TNF alpha was 94%. The IC50 with TNF-α came to 322 nM; in data set [1] (setting [2]) it was 174 nM.

As for `Fc1ccc(-c2n[nH]cc2-c2ccnc(NC3CCN(Cc4ccccc4)CC3)c2)cc1` [Example A-263, 4-[3-(4-fluorophenyl)-1H-pyrazol-4-yl]-N-[1-(phenylmethyl)-4-piperidinyl]-2-pyridinamine], the results for the IC50 (on human p38 kinase alpha; in the data set with TNF-α; in data set [1] (setting [2])) were less than 10 nM, 543 nM and less than 100 nM, respectively. In the data set with TNF alpha, the inhibition in vivo at 30 mg/kg was determined as 49%.

As to `Fc1ccc(-c2n[nH]cc2-c2ccnc(-c3c[nH]nc3-c3ccc(F)cc3)c2)cc1` [Example A-265, 2,4-bis[3-(4-fluorophenyl)-1H-pyrazol-4-yl]pyridine], in the data set on TNF alpha, the inhibition in vivo at 30 mg/kg is 32%. For the same compound, the values for the IC50 (in the data set on TNF-α; in data set [1] (setting [2])) were 602 nM and less than 100 nM, respectively.

With `Cn1cc(-c2ccncc2)c(-c2ccc(Br)cc2)n1` [Example A-243, 4-[3-(4-bromophenyl)-1-methyl-1H-pyrazol-4-yl]pyridine], the inhibition in vivo at 30 mg/kg in the data set with TNF alpha was 82%. In addition, in data set [1] (setting [2]), the IC50 was determined as 729 nM.

For `c1ccc(-c2n[nH]cc2-c2ccncc2)cc1` [Example A-236, 4-(3-phenyl-1H-pyrazol-4-yl)pyridine], in the data set with TNF alpha, the inhibition in vivo at 30 mg/kg amounted to 94%. This compound also registered an IC50 in data set [1] (p38^2 IC50, p38α in vitro) of 237 nM.

For the compound `OCCn1cc(-c2ccnc(/C=C/c3ccc(F)cc3)c2)c(-c2ccc(F)cc2)n1` [Example A-270, (E)-3-(4-fluorophenyl)-4-[2-[2-(4-fluorophenyl)ethenyl]-4-pyridinyl]-1H-pyrazole-1-ethanol], in the data set with TNF alpha, the inhibition in vivo at 30 mg/kg came to 53%. Moreover, the results for the IC50 (with TNF-α; in data set [1] (setting [2])) were 347 nM and 15 nM, respectively.

With `FC(F)(F)c1cccc(-c2n[nH]cc2-c2ccncc2)c1` [Example A-237, 4-[3-[3-(trifluoromethyl)phenyl]-1H-pyrazol-4-yl]pyridine], the inhibition in vivo at 30 mg/kg in the data set with TNF alpha amounted to 60%. In addition, the IC50 in the data set on TNF-α was determined as 87 nM; in data set [1] (setting [2]), 93 nM.

In the case of `Fc1ccc(-c2nn(CCN3CCOCC3)cc2-c2ccncc2)cc1` [Example A-216, 4-[2-[3-(4-fluorophenyl)-4-(4-pyridinyl)-1H-pyrazol-1-yl]ethyl)morpholine], the inhibition in vivo at 30 mg/kg in the data set with TNF alpha was found to be 91%. For the same compound, the 50% inhibitory concentration (IC50) in the data set with TNF-α was determined as 1830 nM; in data set [1] (setting [2]) it was 18 nM.

As for `Fc1ccc(-c2n[nH]cc2-c2ccnc(F)c2)cc1` [Example A-249, 2-fluoro-4-[3-(4-fluorophenyl)-1H-pyrazol-4-yl]pyridine], the inhibition in vivo at 30 mg/kg with TNF alpha was 86%. In data set [1] (setting [2]), the IC50 stood at 432 nM.

`Cn1cc(-c2ccncc2)c(-c2ccc(Cl)cc2)n1` [Example A-232, 4-[3-(4-chlorophenyl)-1-methyl-1H-pyrazol-4-yl]pyridine]: the inhibition in vivo at 30 mg/kg in the data set with TNF alpha turned out to be 96%. Also, the IC50 in data set [1] (setting [2]) was 48 nM.

On to `Fc1ccc(-c2n[nH]cc2-c2ccncc2)cc1F` [Example A-239, 4-[3-(3,4-difluorophenyl)-1H-pyrazol-4-yl]pyridine], for which, in the data set with TNF alpha, the inhibition in vivo at 30 mg/kg came to 87%. In addition, the IC50 in data set [1] (setting [2]) amounted to 34 nM.
